Entries after “also recorded” stand apart in the source; their conditions may differ. Like-named read-outs stand apart in the source and are kept apart here.
How the values were obtained:
[1] = system: LSC-enriched leukemia cells (MLL-AF9); assay: Leukemia coculture assay on primary MSC stroma (cobblestoning readout); type: cell-based, murine; conditions: for leukemia-selective activity in coculture vs normal HSPCs: primary MSC stroma
Procedure: Whole bone marrow were harvested from C57/B16 actin-dsRed mice (006051, Jackson Labs), subjected to red blood cell lysis (Qiagen), then granulocyte-macrophage progenitors (GMPs) were isolated by Fluorescence-activated cell sorting (FACsAria, Becton Dickinson). GMPs were spinfected twice (2500 rpm, 90 min, 37 C) in the presence of mIL3 (10 ng/ml, Peprotech), mIL6 (10 ng/ml, Peprotech), and mSCF (10 ng/ml, Peprotech) with pMSCV-MLL-AF9-Neo virus then transplanted into lethally irradiated C57/B16 recipients. After disease onset, the spleens were harvested and transplanted into sublethally irradiated secondary recipients. Subsequent transplantation of bulk spleen cells from leukemic secondary mice was repeated twice to generate leukemic GMPs from quaternary transplant leukemic mouse bone marrow.
Long bones and hips from moribund leukemic mice were harvested, cleaned, crushed and sequentially passed through 100 and 70 μM filters (Falcon). The cells were RBC lysed (Qiagen) and stained in PBS+2% FBS (Omega). Antibodies included lineage markers CD4, CD8, Gr1, Mac1, IL-7R, and Ter119 (Caltag), c-kit (17-1172-83, eBioscience), Sca-1 (11-5981-82, eBioscience), CD34 (11-0341-85, eBioscience), and CD16/32 (25-0161-82, eBioscience). Hoechst 33258 (H21491, Invitrogen) was also used, to identify live cells. Cells were sorted on a FacsAria II (Becton Dickinson).
The humerii, tibiae, ilia, femurs, and spine were isolated from actin-GFP mice (000329, Jackson Lab) crushed using a mortar and pestle, washed in phosphate-buffered saline (PBS) without magnesium and calcium (Gibco) with 0.5% fetal bovine serum (FBS) (HyClone) and filtered through a 70-μm filter. Red blood cell lysis was performed with ammonium-chloride/potassium-chloride (ACK) lysing buffer (Lonza), the cells were resuspended in α-MEM (StemCell Technologies), 20% FBS (HyClone) and 1× Pen-Strep (CellGro), plated in 25 ml in 150-cm^2 tissue-culture flasks (three per mouse), and incubated at 33° C. with 5% CO2. After 2-3 days, the medium was replaced with fresh α-MEM with 20% FBS. After 8-14 days, the cells were rinsed, split by trypsinization (CellGro), pooled, filtered through a 70 μm filter, replated at 3-4 million cells per 150-cm^2 tissue-culture flask, and grown at 33° C. with 5% CO2 for 3-4 days until nearly confluent. The cells were trypsinized, filtered, and resuspended in 0.5% FBS in PBS with biotin-conjugated anti-mouse CD105 antibody (eBioscience) for 15-30 minutes at room temperature. The CD105-labeled cells were incubated with Dynabead M-280 streptavidin-linked magnetic beads (Invitrogen) for 15-30 minutes at 4° C. with agitation and isolated using magnetic separation and rinsed once. The CD105^+ cell fraction was replated at 1-2 million cells per 150-cm^2 tissue-culture flask and incubated at 33° C. with 5% CO2 for 2-3 days.
The MSCs were trypsinized, filtered, diluted in phenol-red-free alpha-MEM with 20% FBS, and plated (30 μl for a total of 2000 cells per well) on 384-well clear-bottomed black tissue-culture treated plate (3712, Corning) pretreated with fibronectin (Millipore). Plate covers (VWR) were added, the plates were spun and at 500 with slow braking, and the cells were incubated at room temperature for 60-90 minutes before incubation at 33° C. with 5% CO2 for 3 days prior to hematopoietic cell plating. […]

[2] = system: normal HSPCs; assay: Normal HSPC coculture on primary MSC stroma
Procedure: The material was cleaned, crushed and sequentially passed through 100 and 70 μM filters (Falcon). […] The biotin-labeled cells were spun down, resuspended in 0.5% FBS in PBS, and incubated for 15-30 minutes at 4° C. with agitation with 1 mL of Dynabead M-280 streptavidin-linked magnetic beads per 4 mice. The bead-linked cells were depleted using magnetic separation and rinsed once. The lineage- and CD48-depleted cell fraction was labeled with streptavidin-APC-Cy7 antibody from BD Biosciences and c-kit-APC, Sca-1-FITC, CD48-Pacific Blue, and CD150 PE-Cy7 antibodies from eBioscience. DsRed-positive lineage-Sca-1+c-kit+CD48− HSCs were sorted using a FACS DiVa or FACS ARIA (BD Biosciences).
A total of 20 μL of 20 μg/mL fibronectin (Millipore) in PBS was added to each well of a 384-well clear-bottomed black tissue-culture treated plate (Corning) and incubated for 30-120 minutes at 33° C. or 37° C. […] The fibronectin solution was removed from each well using a 24-channel wand aspirator; then 30 μL of BMSC solution was added to plate 2000 BMSCs/well. […] Each plate was covered with a sterile rayon breathable membrane (VWR) and plastic lid, and then spun at 500 rpm (approximately 60× gravity) with slow braking. The plates were incubated at room temperature for 60-90 minutes before incubation at 33° C. with 5% CO2 for 3 days prior to HSC addition.
The sorted HSCs, SLAMs and progenitor cells were resuspended in phenol-red free alpha-MEM with 20% FBS and diluted to 10,000 cells/mL. A total of 20 μL of cell solution containing 200 hematopoietic cells was added to each well using a multichannel pipettor or liquid-dispensing system. Each plate was covered with a sterile rayon breathable membrane (VWR) and plastic lid, and then spun at 500 rpm (approximately 60×gravity) with slow braking. The plates were incubated at room temperature for 60-90 minutes before incubation at 33° C. with 5% CO2 overnight prior to compound or cytokine addition.
Image analysis was performed using MetaXpress software from MDC and CellProfiler software from the Broad Institute of Harvard and MIT.
Compound addition and incubation was performed as described for the LSC coculture screen above, but without a media change or readdition of the compound.
The selected set was screened in 8-point dose against both normal HSPCs with a high number of replicates (6) and LSC-enriched leukemia cells, each cocultured on primary MSCs.

[3] = system: normal murine HSPCs; assay: Triple coculture (LSCs and HSPCs on primary MSCs), normal HSPCs; conditions: read-out: Normal HSPC* IC50
Procedure: (§1) As in the original assay approach, treatment of these triple cocultures began one day after hematopoietic cell plating and was assessed 5 days later.
(§2) An in vitro therapeutic index was determined for each compound, a comparative measure of the potential for anti-LSC efficacy relative to the potential for dose-limiting toxicities to normal HSCs (myeloablation), or to normal progenitors (myelosuppression). Specifically, ratios were created using the IC50s for primary murine HSPCs in triple coculture as the numerator, and the IC50s for primary murine leukemia inhibition in triple coculture as the denominator, toward assessing the potential for HSC harm relative to LSC inhibition.

[4] = system: normal primary human CD34+ cells; assay: Alamar Blue assay for human progenitor cell toxicity; conditions: for IC50: read-out: Normal Progenitor* IC50
Procedure: Normal G-CSF mobilized CD34+ cells (AllCells, LLC, Emeryville, Calif.), normal BM CD34 cells (MSKCC, New York, N.Y.) and cord blood CD34+ cells (New York Blood Center, New York) were previously frozen and thawed out before the proliferation assay was set up in 384-well plates. Briefly, 50 μl of IMDM medium containing 20% FBS (Gemini Bio-Product, West Sacramento, Calif.), 20 ng/ml of recombinant human Kit Ligand (rhKL), 20 ng/ml of rh-Interleukin-3 (rhIL-3), 20 ng/ml of rhG-CSF, 6 units/ml of rhEPO, 10-42-mercaptoethanol, 2 mM glutamine, 50 u/ml penicillin, 50 μg/ml streptomycin, 1,000 viable CD34+ cells in the presence of various doses of Broad compounds (drug-treated group) or 0.1% DMSO (control group) were incubated at 37° C. After 6 days, 5 μl of AlamaBlue (AbD Serotec, Raleigh, N.C.) was added to each well and further incubated overnight. The fluorescence signal was then measured with GeminiXS microplate reader (Molecular Devices, Sunnyvale, Calif.). Effect of small molecules to proliferation of CD34+ cells was reported as Relative fluorescent intensity (Relative Fluorescent Intensity=Fluorescent Intensity (drug-treated)/Fluorescent Intensity (Control).
Finally, experiments were performed to examine whether BRD7116 or lovastatic acid were likely to cause myelosuppression, a type of deleterious toxicity in patients resulting from harm to normal human hematopoietic progenitor cells. This consideration is especially important as conventional therapies currently used in the clinic have myelosuppressive toxicities that are dose-limiting. To this end, a hematopoietic progenitor assay was employed to compare the effects of BRD7116 and lovastatic acid to effects given by such known myelosuppressive compounds. In this assay, normal primary human CD34^+ cord blood cells were plated with cytokines in suspension, treated with compound for 7 days, and then examined for viability relative to DMSO treated controls.

[5] = system: MLL-AF9 LSC; assay: Triple coculture (LSCs and HSPCs on primary MSCs), leukemia cells; type: cell-based, murine; conditions: murine LSCs in triple coculture with HSPCs on MSCs
Procedure: as §1, §2

[6] = Mus musculus, MLL-AF9, LSCs on primary MSC stroma, 8-point dose, read-out: Leukemia IC50
[7] = Mus musculus, read-out: Normal IC50, HSPCs on primary MSC stroma, 8-point dose
[8] = Mus musculus, MLL-AF9, statins (acid form), LSCs cocultured on primary MSC stroma, read-out: Leukemia IC50
[9] = Mus musculus, read-out: Normal IC50, statins (acid form), HSPCs cocultured on primary MSC stroma

COc1cc2c(cc1O)CC[C@@H]1[C@@H]2CC[C@]2(C)[C@@H](O)CC[C@@H]12 [2-Methoxy estradiol]
IC50 [1, 6]: 77 nM | leukemia-selective activity in coculture vs normal HSPCs [1]: displayed leukemia selectivity | IC50 [2, 7]: > 20000 nM

c1cc(CN2CCCNCCNCCCNCC2)ccc1CN1CCCNCCNCCCNCC1 [AMD3100]
leukemia-selective activity in coculture vs normal HSPCs [1]: showed selectivity for LSCs over HSPCs

Nc1ccn([C@@H]2O[C@H](CO)[C@@H](O)[C@@H]2O)c(=O)n1 [Ara-C]
IC50 ([3]; normal murine HSPCs in triple coculture with LSCs on primary MSCs): 5000 nM | toxicity to hematopoietic progenitor cells ([4]; 7 days of exposure, viability relative to DMSO): kill progenitors; also recorded: displayed toxicity | IC50 ([4]; normal human hematopoietic progenitors, 7 days): 2500 nM | IC50 [5]: 2500 nM

CC(C)c1c(C(=O)Nc2ccccc2)c(-c2ccccc2)c(-c2ccc(F)cc2)n1CC[C@@H](O)C[C@@H](O)CC(=O)O [Atorvastatin]
IC50 [1, 8]: ≤ 1900 nM | leukemia-selective activity in coculture vs normal HSPCs [1]: selectively inhibited leukemia cobblestoning | IC50 [2, 9]: > 20000 nM

CC[n+]1c(/C=C2\C=C(C)CC(C)(C)C2)oc2ccccc21 [BRD0638]
IC50 [1, 6]: ≤ 10 nM | IC50 [2, 7]: > 20000 nM

CC[n+]1c(/C=C2/C=C(C)CC(C)C2)sc2ccccc21 (stereo not drawn) [BRD1319]
IC50 [1, 6]: ≤ 10 nM | IC50 [2, 7]: > 20000 nM

CCOc1ccccc1NC(=O)C(C)Oc1ccc(OC)cc1 (stereo not drawn) [BRD1686]
IC50 [1, 6]: 1420 nM | IC50 [2, 7]: > 20000 nM

O=C(c1ccccc1)c1cc[n+](Cc2ccccn2)cc1 [BRD1856]
IC50 [1, 6]: 813 nM | IC50 [2, 7]: > 20000 nM

C[C@@H]1CN([C@@H](C)CO)C(=O)c2cccc(NC(=O)Nc3ccccc3)c2O[C@@H]1CN(C)Cc1ccc(C(=O)Nc2ccccc2N)cc1 [BRD6708]
IC50 [1, 6]: 2140 nM | IC50 [2, 7]: > 20000 nM

COc1cc2c(cc1OC)-c1c(C#N)c(-c3ccc(C)cc3)c(C(=O)c3cccs3)n1CC2 [BRD8404]
IC50 [1, 6]: 149 nM | IC50 [2, 7]: > 20000 nM

C[C@@H]1CN([C@@H](C)CO)C(=O)c2cccc(NC(=O)C3CCCCC3)c2O[C@@H]1CN(C)Cc1ccc(C(=O)Nc2ccccc2N)cc1 [BRD9608]
IC50 [1, 6]: 699 nM | IC50 [2, 7]: ~20000 nM

COCc1c(C(C)C)nc(C(C)C)c(/C=C/[C@@H](O)C[C@@H](O)CC(=O)O)c1-c1ccc(F)cc1 [Cerivastatin]
IC50 [1, 8]: < 10 nM | IC50 [2, 9]: > 20000 nM

COc1cccc2c1C(=O)c1c(O)c3c(c(O)c1C2=O)C[C@@](O)(C(C)=O)C[C@@H]3O[C@H]1C[C@H](N)[C@H](O)[C@H](C)O1 [Daunorubicin]
IC50 ([3]; Mus musculus): 50 nM | IC50 ([4]; Homo sapiens, 168 h): 20 nM

CC(C)n1c(/C=C/C(O)CC(O)CC(=O)O)c(-c2ccc(F)cc2)c2ccccc21 (stereo not drawn) [Fluvastatin]
IC50 [1, 8]: 27.9 nM | IC50 [2, 9]: > 20000 nM

C=C1C(=O)O[C@@H]2[C@H]3O[C@]3(C)CC/C=C(\C)CC[C@@H]12 [Parthenolide]
IC50 [1, 6]: 7500 nM | IC50 [2, 7]: > 20000 nM

COc1cc(/C=C/C(=O)N2CCC=CC2=O)cc(OC)c1OC [Piperlongumine]
IC50 ([1]; Mus musculus, MLL-AF9, read-out: Leukemia IC50): 379 nM | IC50 ([2]; Mus musculus, read-out: Normal IC50): ~20000 nM

CC(C)c1nc(N(C)S(C)(=O)=O)nc(-c2ccc(F)cc2)c1/C=C/[C@@H](O)C[C@@H](O)CC(=O)O [Rosuvistatin]
leukemia-selective activity in coculture vs normal HSPCs [1]: selectively inhibited leukemia cobblestoning | IC50 ([1]; statins (acid form), LSCs cocultured on primary MSC stroma, read-out: Leukemia IC50): 1220 nM | IC50 ([2]; read-out: Normal IC50, statins (acid form), HSPCs cocultured on primary MSC stroma): > 20000 nM

CCC(C)(C)C(=O)O[C@H]1C[C@@H](C)C=C2C=C[C@H](C)[C@H](CC[C@@H]3C[C@@H](O)CC(=O)O3)[C@H]21 [Simvastatin]
IC50 [1, 8]: ≤ 15 nM | IC50 [2, 9]: > 20000 nM

Celastrol
IC50 ([1]; LSCs on primary MSC stroma, 8-point dose, read-out: Leukemia IC50): 102 nM | IC50 ([2]; read-out: Normal IC50, HSPCs on primary MSC stroma, 8-point dose): > 20000 nM

From US20130338092A1, “COMPOUNDS AND METHODS FOR TARGETING LEUKEMIC STEM CELLS” (The Broad Institute, Inc., priority 2011, published 2013)
